Source: doi:10.1101/2020.06.11.145995v1 (biorxiv, 2020)
Like-named read-outs stand apart in the source and are kept apart here.

What was measured:
Assay in all cases: biochemical
ACVR1 = ACVR1 (Homo sapiens, UniProt Q04771)
ACVR2B = ACVR2B (Homo sapiens, UniProt Q13705)
AKT1 = AKT1 (Homo sapiens, UniProt P31749)
BMX = BMX (Homo sapiens, UniProt P51813)
BTK = BTK (Homo sapiens, UniProt Q06187)
CAMK1 = CAMK1 (Homo sapiens, UniProt Q14012)
CAMK2G = CAMK2G (Homo sapiens, UniProt Q13555)
CHEK1 = CHEK1 (Homo sapiens, UniProt O14757)
CLK2 = CLK2 (Homo sapiens, UniProt P49760)
CSNK2A1 = CSNK2A1 (Homo sapiens, UniProt P68400)
DMPK2 = DMPK2 (Homo sapiens, UniProt Q6DT37)
ERN1 = ERN1 (Homo sapiens, UniProt O75460)
FGFR2 = FGFR2 (Homo sapiens, UniProt P21802)
FGFR3(G697C) = FGFR3(G697C) (Homo sapiens, UniProt P22607, G697C)
FYN = FYN (Homo sapiens, UniProt P06241)
GRK1 = GRK1 (Homo sapiens, UniProt Q15835)
JNK3 = JNK3 (Homo sapiens, UniProt P53779)
KIT(L576P) = KIT(L576P) (Homo sapiens, UniProt P10721, L576P)
MAPKAPK2 = MAPKAPK2 (Homo sapiens, UniProt P49137)
MEK1 = MEK1 (Homo sapiens, UniProt Q02750)
MLK1 = MLK1 (Homo sapiens, UniProt P80192)
MLK3 = MLK3 (Homo sapiens, UniProt Q16584)
MRCKA = MRCKA (Homo sapiens, UniProt Q5VT25)
MYO3A = MYO3A (Homo sapiens, UniProt Q8NEV4)
NUAK1 = NUAK1 (Homo sapiens, UniProt O60285)
[1] = target: ABL1(H396P)-nonphosphorylated (Homo sapiens, UniProt P00519, H396P)
[2] = target: JAK2(JH1domain-catalytic) (Homo sapiens, UniProt O60674)
YSK4 = YSK4 (Homo sapiens, UniProt Q56UN5)
p38-delta = p38-delta (Homo sapiens, UniProt O15264)
[3] = read-out: CPT-1-70-1 (1uM) % control
[4] = read-out: CPT-1-70-1 (1μM) % control
[5] = read-out: HYJ-2-002-1 (1uM) % control
[6] = read-out: HYJ-2-002-1 (1μM) % control

p38-delta, sequence (O15264 whole entry): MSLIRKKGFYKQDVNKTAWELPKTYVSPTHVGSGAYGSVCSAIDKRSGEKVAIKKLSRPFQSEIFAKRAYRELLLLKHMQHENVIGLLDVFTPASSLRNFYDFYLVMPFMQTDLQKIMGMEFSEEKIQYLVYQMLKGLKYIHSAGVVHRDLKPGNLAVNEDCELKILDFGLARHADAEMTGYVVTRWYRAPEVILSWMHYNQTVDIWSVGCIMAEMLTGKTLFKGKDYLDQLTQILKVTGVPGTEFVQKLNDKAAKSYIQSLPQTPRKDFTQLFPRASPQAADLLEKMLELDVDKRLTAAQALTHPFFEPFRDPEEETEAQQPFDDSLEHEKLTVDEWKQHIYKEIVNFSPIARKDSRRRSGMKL
GRK1, sequence (Q15835 whole entry): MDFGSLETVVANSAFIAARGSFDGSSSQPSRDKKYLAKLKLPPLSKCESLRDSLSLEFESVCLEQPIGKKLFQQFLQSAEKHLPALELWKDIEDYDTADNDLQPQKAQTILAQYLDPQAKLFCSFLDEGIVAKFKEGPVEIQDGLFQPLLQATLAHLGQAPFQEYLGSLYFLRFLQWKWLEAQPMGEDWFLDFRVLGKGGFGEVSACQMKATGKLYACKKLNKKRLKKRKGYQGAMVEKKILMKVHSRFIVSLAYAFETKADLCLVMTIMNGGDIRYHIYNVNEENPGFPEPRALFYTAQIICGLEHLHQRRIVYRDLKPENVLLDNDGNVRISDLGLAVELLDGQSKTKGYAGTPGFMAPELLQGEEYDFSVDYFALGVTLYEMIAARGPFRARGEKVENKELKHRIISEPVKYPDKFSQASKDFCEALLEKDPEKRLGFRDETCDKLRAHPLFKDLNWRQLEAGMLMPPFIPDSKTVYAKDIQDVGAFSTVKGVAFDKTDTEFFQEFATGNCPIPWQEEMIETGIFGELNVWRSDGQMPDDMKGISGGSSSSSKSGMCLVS
MAPKAPK2, sequence (P49137 whole entry): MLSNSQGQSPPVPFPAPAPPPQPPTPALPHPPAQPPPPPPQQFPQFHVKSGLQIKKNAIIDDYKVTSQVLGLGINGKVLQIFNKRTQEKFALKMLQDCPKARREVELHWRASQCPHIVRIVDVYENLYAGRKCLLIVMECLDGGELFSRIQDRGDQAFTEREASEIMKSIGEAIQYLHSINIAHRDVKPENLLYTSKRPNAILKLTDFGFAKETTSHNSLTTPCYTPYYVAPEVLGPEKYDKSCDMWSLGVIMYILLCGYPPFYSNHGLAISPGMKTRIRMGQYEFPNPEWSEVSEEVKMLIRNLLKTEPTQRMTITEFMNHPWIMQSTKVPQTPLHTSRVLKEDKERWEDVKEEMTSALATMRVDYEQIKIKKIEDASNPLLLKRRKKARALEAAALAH
KIT(L576P), sequence (P10721 whole entry L576P): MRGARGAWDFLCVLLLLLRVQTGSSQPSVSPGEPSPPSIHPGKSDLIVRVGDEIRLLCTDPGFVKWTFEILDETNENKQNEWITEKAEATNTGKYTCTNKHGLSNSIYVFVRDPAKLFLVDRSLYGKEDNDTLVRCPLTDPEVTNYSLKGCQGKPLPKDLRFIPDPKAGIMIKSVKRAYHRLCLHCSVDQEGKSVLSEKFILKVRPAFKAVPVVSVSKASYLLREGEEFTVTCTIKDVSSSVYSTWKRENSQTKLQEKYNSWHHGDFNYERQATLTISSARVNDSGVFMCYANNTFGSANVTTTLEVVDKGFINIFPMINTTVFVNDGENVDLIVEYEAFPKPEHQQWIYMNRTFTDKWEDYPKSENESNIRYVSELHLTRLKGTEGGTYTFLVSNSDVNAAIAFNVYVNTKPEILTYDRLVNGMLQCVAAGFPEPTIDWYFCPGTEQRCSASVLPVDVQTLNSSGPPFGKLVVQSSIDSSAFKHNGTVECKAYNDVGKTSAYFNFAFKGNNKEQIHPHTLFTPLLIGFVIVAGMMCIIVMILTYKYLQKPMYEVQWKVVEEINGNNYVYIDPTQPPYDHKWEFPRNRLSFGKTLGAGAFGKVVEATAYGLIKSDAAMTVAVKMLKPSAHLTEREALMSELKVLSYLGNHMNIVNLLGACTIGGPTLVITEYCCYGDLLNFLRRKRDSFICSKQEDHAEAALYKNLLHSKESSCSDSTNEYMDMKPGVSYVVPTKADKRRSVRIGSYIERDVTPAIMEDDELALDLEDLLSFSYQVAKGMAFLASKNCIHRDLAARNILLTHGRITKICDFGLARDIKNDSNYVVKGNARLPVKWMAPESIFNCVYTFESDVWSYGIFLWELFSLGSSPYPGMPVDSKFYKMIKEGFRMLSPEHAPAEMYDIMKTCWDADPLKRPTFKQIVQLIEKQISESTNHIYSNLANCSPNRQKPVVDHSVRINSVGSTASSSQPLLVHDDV
FYN, sequence (P06241 whole entry): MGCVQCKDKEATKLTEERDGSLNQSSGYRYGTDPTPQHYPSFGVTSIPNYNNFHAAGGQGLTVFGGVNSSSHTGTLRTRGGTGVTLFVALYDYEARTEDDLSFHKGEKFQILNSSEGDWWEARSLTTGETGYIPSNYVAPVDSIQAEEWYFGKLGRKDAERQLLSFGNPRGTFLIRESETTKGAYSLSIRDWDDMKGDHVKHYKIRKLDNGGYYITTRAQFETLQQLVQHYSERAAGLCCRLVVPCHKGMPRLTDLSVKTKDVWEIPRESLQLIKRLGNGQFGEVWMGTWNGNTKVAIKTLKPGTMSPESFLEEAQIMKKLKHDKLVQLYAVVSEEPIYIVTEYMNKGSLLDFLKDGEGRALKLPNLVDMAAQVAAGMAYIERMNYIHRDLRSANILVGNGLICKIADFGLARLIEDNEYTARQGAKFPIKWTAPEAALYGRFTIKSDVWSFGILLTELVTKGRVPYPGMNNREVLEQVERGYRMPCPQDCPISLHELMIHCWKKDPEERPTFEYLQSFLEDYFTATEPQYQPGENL
CSNK2A1, sequence (P68400 whole entry): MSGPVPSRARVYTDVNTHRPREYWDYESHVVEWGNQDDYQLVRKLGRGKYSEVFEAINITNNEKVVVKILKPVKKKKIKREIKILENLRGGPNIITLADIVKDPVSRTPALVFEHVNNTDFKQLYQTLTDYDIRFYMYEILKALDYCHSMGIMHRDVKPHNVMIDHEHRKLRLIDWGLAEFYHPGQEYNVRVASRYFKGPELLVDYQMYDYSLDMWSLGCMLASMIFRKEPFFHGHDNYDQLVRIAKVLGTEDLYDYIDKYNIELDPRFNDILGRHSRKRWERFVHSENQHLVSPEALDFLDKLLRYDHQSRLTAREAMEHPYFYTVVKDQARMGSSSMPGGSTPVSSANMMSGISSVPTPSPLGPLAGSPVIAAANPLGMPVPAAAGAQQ
CLK2, sequence (P49760 whole entry): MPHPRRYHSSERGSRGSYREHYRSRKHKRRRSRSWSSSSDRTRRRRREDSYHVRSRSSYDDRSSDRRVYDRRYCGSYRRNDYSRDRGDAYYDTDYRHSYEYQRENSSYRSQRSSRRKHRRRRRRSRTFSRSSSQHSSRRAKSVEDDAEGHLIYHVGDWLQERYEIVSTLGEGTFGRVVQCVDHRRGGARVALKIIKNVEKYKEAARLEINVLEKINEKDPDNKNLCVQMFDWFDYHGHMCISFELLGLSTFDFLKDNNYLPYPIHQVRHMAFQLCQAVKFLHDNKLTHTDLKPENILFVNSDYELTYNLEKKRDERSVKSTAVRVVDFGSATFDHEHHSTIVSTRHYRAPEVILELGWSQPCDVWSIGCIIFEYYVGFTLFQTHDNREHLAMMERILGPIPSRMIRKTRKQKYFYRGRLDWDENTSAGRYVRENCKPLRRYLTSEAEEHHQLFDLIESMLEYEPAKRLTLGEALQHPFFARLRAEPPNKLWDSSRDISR
MLK3, sequence (Q16584 whole entry): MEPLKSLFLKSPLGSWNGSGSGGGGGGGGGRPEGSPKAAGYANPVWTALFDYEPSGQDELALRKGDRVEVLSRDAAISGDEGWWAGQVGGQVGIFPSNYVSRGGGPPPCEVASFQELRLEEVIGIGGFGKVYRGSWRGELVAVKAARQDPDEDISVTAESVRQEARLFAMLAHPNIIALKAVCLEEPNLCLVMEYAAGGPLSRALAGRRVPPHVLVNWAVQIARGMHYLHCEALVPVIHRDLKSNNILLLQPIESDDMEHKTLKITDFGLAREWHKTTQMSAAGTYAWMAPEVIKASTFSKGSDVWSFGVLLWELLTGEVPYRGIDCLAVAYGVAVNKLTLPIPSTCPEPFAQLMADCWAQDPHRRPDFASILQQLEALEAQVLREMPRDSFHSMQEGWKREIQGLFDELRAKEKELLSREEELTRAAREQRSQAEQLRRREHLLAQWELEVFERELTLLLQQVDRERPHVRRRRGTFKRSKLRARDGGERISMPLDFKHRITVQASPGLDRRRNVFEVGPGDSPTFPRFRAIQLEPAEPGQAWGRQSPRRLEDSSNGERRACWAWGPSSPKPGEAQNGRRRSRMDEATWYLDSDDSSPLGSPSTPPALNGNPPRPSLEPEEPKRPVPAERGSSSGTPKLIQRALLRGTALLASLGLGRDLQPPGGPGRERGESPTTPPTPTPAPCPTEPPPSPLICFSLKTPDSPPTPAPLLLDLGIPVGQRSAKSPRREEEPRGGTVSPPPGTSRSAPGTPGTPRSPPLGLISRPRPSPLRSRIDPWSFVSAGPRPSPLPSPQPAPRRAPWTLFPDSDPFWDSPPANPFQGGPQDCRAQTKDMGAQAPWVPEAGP
CAMK1, sequence (Q14012 whole entry): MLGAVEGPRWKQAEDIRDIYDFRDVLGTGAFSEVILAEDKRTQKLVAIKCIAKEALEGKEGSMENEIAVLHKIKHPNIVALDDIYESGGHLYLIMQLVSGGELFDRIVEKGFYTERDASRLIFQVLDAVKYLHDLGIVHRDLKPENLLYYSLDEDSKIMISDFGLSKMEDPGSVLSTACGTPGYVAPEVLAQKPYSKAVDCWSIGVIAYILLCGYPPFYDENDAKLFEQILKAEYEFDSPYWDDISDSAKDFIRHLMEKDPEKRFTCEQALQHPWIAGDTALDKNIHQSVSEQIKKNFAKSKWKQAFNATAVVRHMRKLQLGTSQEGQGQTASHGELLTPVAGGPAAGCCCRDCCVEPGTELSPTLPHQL

## CN1CCN(c2ccc(Nc3nc(Oc4ccc(NC(=O)CCl)cc4)c4cc[nH]c4n3)cc2)CC1 [CPT1-70-1]
ACVR1; [3]
  remaining activity at 1 µM: 100%
ACVR2B; [3]
  remaining activity at 1 µM: 100%
AKT1; [3]
  remaining activity at 1 µM: 100%
BMX; [3]
  remaining activity at 1 µM: 9.2%
BTK; [3]
  remaining activity at 1 µM: 7%
CAMK1; [3]
  remaining activity at 1 µM: 57%
CAMK2G; [3]
  remaining activity at 1 µM: 100%
CHEK1; [3]
  remaining activity at 1 µM: 92%
CLK2; [3]
  remaining activity at 1 µM: 22%
CSNK2A1; [3]
  remaining activity at 1 µM: 35%
DMPK2; [3]
  remaining activity at 1 µM: 67%
ERN1; [3]
  remaining activity at 1 µM: 69%
FGFR2; [3]
  remaining activity at 1 µM: 22%
FGFR3(G697C); [3]
  remaining activity at 1 µM: 34%
FYN; [3]
  remaining activity at 1 µM: 90%
GRK1; [3]
  remaining activity at 1 µM: 82%
JNK3; [3]
  remaining activity at 1 µM: 4.6%
KIT(L576P); [3]
  remaining activity at 1 µM: 8.9%
MAPKAPK2; [3]
  remaining activity at 1 µM: 100%
MEK1; [3]
  remaining activity at 1 µM: 51%
MLK1; [3]
  remaining activity at 1 µM: 9%
MLK3; [3]
  remaining activity at 1 µM: 91%
MRCKA; [3]
  remaining activity at 1 µM: 100%
MYO3A; [3]
  remaining activity at 1 µM: 88%
NUAK1; [3]
  remaining activity at 1 µM: 9.3%
[1]; [3]
  remaining activity at 1 µM: 7.2%
[2]; [3]
  remaining activity at 1 µM: 1.2%
YSK4; [4]
  remaining activity at 1 µM: 0.45%
p38-delta; [4]
  remaining activity at 1 µM: 100%

## CCN1CCN(Cc2ccc(NC(=O)c3ccc(C)c(CCc4cnc5[nH]ccc5c4OC)c3)cc2C(F)(F)F)CC1 [HYJ-2-002-1]
ACVR1; [5]
  remaining activity at 1 µM: 100%
ACVR2B; [5]
  remaining activity at 1 µM: 100%
AKT1; [5]
  remaining activity at 1 µM: 100%
BMX; [5]
  remaining activity at 1 µM: 8.7%
BTK; [5]
  remaining activity at 1 µM: 8.1%
CAMK1; [5]
  remaining activity at 1 µM: 80%
CAMK2G; [5]
  remaining activity at 1 µM: 100%
CHEK1; [5]
  remaining activity at 1 µM: 100%
CLK2; [5]
  remaining activity at 1 µM: 85%
CSNK2A1; [5]
  remaining activity at 1 µM: 94%
DMPK2; [5]
  remaining activity at 1 µM: 92%
ERN1; [5]
  remaining activity at 1 µM: 100%
FGFR2; [5]
  remaining activity at 1 µM: 5.7%
FGFR3(G697C); [5]
  remaining activity at 1 µM: 29%
FYN; [5]
  remaining activity at 1 µM: 2.2%
GRK1; [5]
  remaining activity at 1 µM: 100%
JNK3; [5]
  remaining activity at 1 µM: 75%
KIT(L576P); [5]
  remaining activity at 1 µM: 82%
MAPKAPK2; [5]
  remaining activity at 1 µM: 100%
MEK1; [5]
  remaining activity at 1 µM: 100%
MLK1; [5]
  remaining activity at 1 µM: 100%
MLK3; [5]
  remaining activity at 1 µM: 53%
MRCKA; [5]
  remaining activity at 1 µM: 100%
MYO3A; [5]
  remaining activity at 1 µM: 59%
NUAK1; [5]
  remaining activity at 1 µM: 65%
[1]; [5]
  remaining activity at 1 µM: 0%
[2]; [5]
  remaining activity at 1 µM: 57%
YSK4; [6]
  remaining activity at 1 µM: 0.45%
p38-delta; [6]
  remaining activity at 1 µM: 66%
